Laboratory results published in patent publication US20200022951A1, “MULTIVITAMIN COMPOSITION FOR IMPROVING VERBAL FLUENCY, DECREASING PERFORMANCE ANXIETY SYMPTOMS AND METHOD FOR PREPARING SAME” (priority 2017, published 2020).

Test system: individuals with performance anxiety
Assay: trials using the composition: anxiety and speech fluency
Type: in vivo
Conditions: as component of the composition of the invention

NCCCC[C@H](N)C(=O)O [L-Lysine]
effect on anxiety amelioration: positive effect
